Experimental data published in US20060100179A1, “Compositions and methods for use in targeting vascular destruction” (priority 2002, published 2006).
Read-outs that look alike come from different tables or passages of the source.

Tests used:
[1] = tested on: HMVEC (human neonatal microvascular endothelial cells); assay: Cell survival by clonogenic assay (colony count or MTT) in HMVEC; conditions: for clonogenic toxicity to HMVEC after 1 hour exposure versus 6 hours: 1 and 6 hours exposure, washed, 3 more days, MTT assay (FIG. 5); for clonogenic cytotoxicity, HMVEC, limited exposure: exposure limited to 2 hours, clonogenic cytotoxicity estimated at 5 days (FIG. 2A)
Experimental: (§1) Cell culture. Four commercially available human cell lines were grown in the indicated media below in 5% CO2, 80% humidity and 37EC: • 1. HL60 human leukemic cells, a pro-apoptotic cell line—cultured in RPMI 1640 fortified with 10% fetal calf serum. • 2. K562 human leukemic cells, an apoptotic-resistant cell line—cultured in RPMI 1640 fortified with 10% fetal calf serum. • 3. Human neonatal microvascular endothelial cells (HMVEC)—cultured in medium 131+microvascular growth supplement (MVGS)+attachment factor (AF)=500 ml+25 ml (AF is added 2-3 ml/T-25 flask; all reagents supplied by Cascade Biologics, Inc., Portland, Oreg.). • 4. Human neonatal dermal fibroblasts (HDF)—cultured in medium 106+low serum growth supplement (LSGS)=500 ml+10 ml (Cascade Biologics, Inc.).
Cell survival by clonogenic assay. This assay is based on a description reported by Schweitzer et al. (Expt. Haematol. 21: 573-578, 1993) with slight modifications. […] After 5 days of incubation under the standard culture conditions stated above, colonies (>40 cells) were counted by an inverted light microscope or estimated by MTT assay. IC50 values were obtained from the fitted curves of percentage of the control versus the drug concentrations. […]
The combretastatins are a family of naturally occurring tubulin binding agents comprising an A-,B-,C- and D- series of structures (U.S. Pat. Nos. 4,940,726; 4,996,237; 5,409,953; and 5,569,786). […] The compounds were added to microcultures in DMSO (i.e <0.5%) and toxicity was evaluated by MTT assay after 5-7 days in culture. […]

[2] = tested on: HDF (human neonatal dermal fibroblasts); assay: Cell survival by clonogenic assay (colony count or MTT) in HDF
Experimental: as §1
Cell survival by clonogenic assay. This assay is based on a description reported by Schweitzer et al. (Expt. Haematol. 21: 573-578, 1993) with slight modifications. […] After 5 days of incubation under the standard culture conditions stated above, colonies (>40 cells) were counted by an inverted light microscope or estimated by MTT assay. IC50 values were obtained from the fitted curves of percentage of the control versus the drug concentrations.
Experiment 1. HLGO, K562, HDF, and HMVEC cells were either cultured in 96-well plates at the indicated concentrations (FIGS. 2A and 2B) for 5 days in the presence of A4 prodrug, or after 2 hours exposure the drug-containing media was removed, fresh media added, and the cells cultured for an additional 5 days. Clonogenic growth was recorded after 5 days incubation for all treatments.
Experiment 2. HMVEC and HDF were cultured in 96-well microtiter plates initially containing 800 cells/well. The cells were cultured for 1 hour in the presence of the indicated concentrations of A4 prodrug ∀1 unit of alkaline phosphatase. The medium was removed, the cells washed, and fresh medium added, and the cells were incubated for an additional 5 days. Clonogenic growth was then established by the MTT assay.
The combretastatins are a family of naturally occurring tubulin binding agents comprising an A-,B-,C- and D- series of structures (U.S. Pat. Nos. 4,940,726; 4,996,237; 5,409,953; and 5,569,786). […] The compounds were added to microcultures in DMSO (i.e <0.5%) and toxicity was evaluated by MTT assay after 5-7 days in culture.
All of the compounds were evaluated for toxicity after a one-hour exposure in microculture and assayed for cytotoxicity by MTT assay after an additional 5 days' incubation in culture.

[3] = tested on: HL60 human leukemic cells; assay: Cell survival by clonogenic assay in HL-60; type: cell-based
Excerpt: (§2) Cell survival by clonogenic assay.

[4] = tested on: ocular vessels; assay: Ocular neovascularization induced by lipid hydroperoxide (LHP) in rabbit eyes; type: in vivo; conditions: i.v. 40 mg/kg once a day for five days, eyes examined seven days later
Experimental: To simulate pathogenic ocular angiogenesis, ocular neovascularization was induced by administration of lipid hydroperoxide (LHP) by intra-corneal injection at a dosage of 30 μg to rabbit eyes. Seven to 14 days later, ocular vessels formed in the injected eyes due to LHP insult. The subjects were divided into two groups; those of one group were given combretastatin A4 disodium phosphate by intravenous administration at a dosage of 40 mg/kg once a day for five days, while a vehicle without combretastatin A4 disodium phosphate was administered to the other group by i.v. administration as a dosage of water for the same time period. The eyes of both groups were examined seven days later.

[5] = tested on: K562 human leukemic cells; assay: Cell survival by clonogenic assay in K562; type: cell-based; conditions: 5 days exposure (FIG. 2B); read-out: IC50 clonogenic cytotoxicity, K562
Excerpt: as §2

[6] = read-out: IC50 clonogenic toxicity values, HMVEC, compounds added in DMSO (<0.5%), MTT assay after 5-7 days in culture
[7] = read-out: IC50 values HMVEC, one-hour exposure, MTT assay after additional 5 days' incubation
[8] = read-out: IC50 clonogenic toxicity values, HDF, compounds added in DMSO (<0.5%), MTT assay after 5-7 days in culture
[9] = read-out: IC50 values HDF, one-hour exposure, MTT assay after additional 5 days' incubation
[10] = compounds added in DMSO (<0.5%), MTT assay after 5-7 days in culture, read-out: IC50 clonogenic toxicity values, HL-60

Compound	IC50 [1, 6] [nM]	IC50 [1, 7] [nM]	IC50 [2, 8] [nM]	IC50 [2, 9] [nM]	IC50 [3, 10] [nM]	other results
COc1ccc(/C=C\c2cc(OC)c(OC)c(OC)c2)c(O)c1O [Combretastatin A1]	500	10000 to 15000	20	500 to 1000	–	clonogenic toxicity to HMVEC after 1 hour exposure versus 6 hours [1]: did not induce maximum toxicity
COc1ccc(/C=C\c2cc(OC)c3c(c2)OCO3)cc1O [Combretastatin A2, reference compound]	30 to 40	–	25 to 35	–	15	–
COc1ccc(/C=C\c2cc(O)c(OC)c(OC)c2)cc1O [Combretastatin A3, reference compound]	> 12	–	8 to 10	–	5	–
COc1ccc(/C=C\c2cc(OC)c(OC)c(OC)c2)cc1OP(=O)([O-])[O-].[Na+].[Na+] [Combretastatin A4 Na2PO4, combretastatin A4 disodium phosphate]	–	75 to 150	–	> 500	–	reduction of vessels [4]: ≥ 40%; IC50 ([3]; 5 days exposure (FIG. 2B), read-out: IC50 clonogenic cytotoxicity, HL60): 1.5 to 2.5 nM; IC50 [5]: 1.5 to 2.5 nM; clonogenic cytotoxicity, HMVEC, limited exposure [1]: only HMVEC showed IC50 cytotoxicity; clonogenic cytotoxicity, HMVEC, limited exposure ([1]; listed as A4 prodrug): quite sensitive; IC50 ([1]; read-out: IC50 clonogenic cytotoxicity, HMVEC, 5 days exposure (FIG. 2B)): 1.5 to 2.5 nM; cytotoxicity to HDF with added alkaline phosphatase, compared with HMVEC ([2]; 1 hour exposure, 1 unit alkaline phosphatase added (FIG. 3)): the same for HMVEC and HDF; cytotoxicity to HDF without added alkaline phosphatase ([2]; 1 hour exposure, no added alkaline phosphatase (FIG. 3)): lack of cytotoxicity; IC50 ([2]; read-out: IC50 clonogenic cytotoxicity, HDF, 5 days exposure (FIG. 2B)): 1.5 to 2.5 nM
COc1ccc(/C=C\c2cc(OC)c(OC)c(OC)c2)cc1O [Combretastatin A4]	1 to 2	75 to 150	1 to 2	50	1 to 2	–
COc1ccc(CCc2cc(OC)c(OC)c(OC)c2)c(O)c1O [Combretastatin B1, reference compound]	200 to 300	–	200 to 300	–	500	–
COc1ccc(CCc2cc(O)c(OC)c(OC)c2)cc1O [Combretastatin B2, reference compound]	800 to 1000	–	1100	–	125	–
O=C1N[C@H]2[C@H](O)[C@H](O)[C@@H](O)[C@H](O)[C@@H]2c2cc3c(c(O)c21)OCO3 [Pancratistatin]	–	–	–	–	–	IC50 ([1]; Homo sapiens, HMVEC, read-out: IC50 values HMVEC): 20000 to 25000 nM; IC50 ([2]; Homo sapiens, Fibroblast, read-out: IC50 values HDF): 20000 nM
CC(=O)O[C@H]1C(=O)[C@@]2(C)[C@H]([C@H](OC(=O)c3ccccc3)[C@]3(O)C[C@H](OC(=O)[C@H](O)[C@@H](NC(=O)c4ccccc4)c4ccccc4)C(C)=C1C3(C)C)[C@]1(OC(C)=O)CO[C@@H]1C[C@@H]2O [taxol, reference compound]	–	–	–	–	–	clonogenic toxicity to HMVEC after 1 hour exposure versus 6 hours [1]: did not induce maximum toxicity
CC(=O)O[C@@]12CO[C@@H]1C[C@H](O)[C@@]1(C)C(=O)[C@H](O)C3=C(C)[C@@H](OC(=O)[C@H](O)[C@@H](NC(=O)OC(C)(C)C)c4ccccc4)C[C@@](O)([C@@H](OC(=O)c4ccccc4)[C@H]21)C3(C)C [taxotere, reference compound]	–	–	–	–	–	clonogenic toxicity to HMVEC after 1 hour exposure versus 6 hours [1]: did not induce maximum toxicity
Amino Combretastatin A4 Phosphoroamidate	–	8000 to 10000	–	15000 to 20000	–	–
Combretastatin A1 Na2PO4	–	10000 to 15000	–	5000 to 10000	–	–
Combretastatin A1 Nicotinamide PO4	–	10000 to 15000	–	> 10000	–	–
Combretastatin A1 Piperazine PO4	–	10000 to 15000	–	1000 to 2000	–	–
Pancratistatin Na2PO4	–	20000 to 25000	–	60000 to 80000	–	–
